In ChEMBL document CHEMBL3627672, “Structure-activity relationship study of syringolin A as a potential anticancer agent” (Bioorg Med Chem Lett, 2015):

Tests used:
RKO = assay: Antiproliferative activity against human RKO cells after 72 hrs by oxyluciferin luminescence assay
HCT-116 = assay: Antiproliferative activity against human HCT116 cells after 72 hrs by oxyluciferin luminescence assay; conditions: HCT-116, 72 h
CCRF-CEM = assay: Antiproliferative activity against human CCRF-CEM cells after 72 hrs by oxyluciferin luminescence assay
A-431 = assay: Antiproliferative activity against human A431 cells after 72 hrs by oxyluciferin luminescence assay; conditions: A-431, 72 h
[1] = Antiproliferative activity against human RPMI8266 cells after 72 hrs by oxyluciferin luminescence assay; conditions: RPMI8266, 72 h
[2] = Antiproliferative activity against human TOV21G cells after 72 hrs by oxyluciferin luminescence assay

IC50 (HCT-116) | IC50 (CCRF-CEM) | IC50 (A-431) | SMILES | IC50 (RKO) | IC50 [1] | IC50 [2]
31 nM | 1.5 nM | 29.3 nM | CCCCCCCCCC(=O)N[C@@H](Cc1cccc2ccccc12)C(=O)N[C@H]1/C=C/CCNC(=O)/C=C/[C@H](C(C)C)NC1=O | 31.3 nM | 7.4 nM | 13.2 nM
18.5 nM | 5 nM | 17.8 nM | CCCCCCCCCC(=O)N[C@@H](Cc1ccc2ccccc2c1)C(=O)N[C@H]1/C=C/CCNC(=O)/C=C/[C@H](C(C)C)NC1=O | 15.2 nM | 10.9 nM | 14.1 nM
26.7 nM | 24.9 nM | 29.7 nM | CCCCCCCCCC(=O)N[C@@H](Cc1ccco1)C(=O)N[C@H]1/C=C/CCNC(=O)/C=C/[C@H](C(C)C)NC1=O | 20.1 nM | 24.1 nM | 22.3 nM
15.5 nM | 11 nM | 18.7 nM | CCCCCCCCCC(=O)N[C@@H](Cc1cccs1)C(=O)N[C@H]1/C=C/CCNC(=O)/C=C/[C@H](C(C)C)NC1=O | 20.8 nM | 14.4 nM | 16.7 nM
9.1 nM | 4.2 nM | 15 nM | CCCCCCCCCC(=O)N[C@@H](Cc1ccsc1)C(=O)N[C@H]1/C=C/CCNC(=O)/C=C/[C@H](C(C)C)NC1=O | 11.3 nM | 5.7 nM | 10.2 nM
44.5 nM | 16.8 nM | 45.5 nM | CCCCCCCCCC(=O)N[C@@H](Cc1c[nH]c2ccccc12)C(=O)N[C@H]1/C=C/CCNC(=O)/C=C/[C@H](C(C)C)NC1=O | 39.4 nM | 27.5 nM | 13.5 nM
> 1000 nM | 197 nM | > 1000 nM | CCCCCCCCCC(=O)N(C)[C@@H](Cc1ccccc1)C(=O)N[C@H]1/C=C/CCNC(=O)/C=C/[C@H](C(C)C)NC1=O | > 1000 nM | > 1000 nM | > 1000 nM
402 nM | 61.1 nM | 413 nM | CCCCC(=O)N[C@@H](Cc1ccccc1)C(=O)N[C@H]1/C=C/CCNC(=O)/C=C/[C@H](C(C)C)NC1=O | 415 nM | 138 nM | 427 nM
61.4 nM | 28.6 nM | 128 nM | CCCCCC(=O)N[C@@H](Cc1ccccc1)C(=O)N[C@H]1/C=C/CCNC(=O)/C=C/[C@H](C(C)C)NC1=O | 52.6 nM | 42.6 nM | 131 nM
24.5 nM | 11.6 nM | 57.7 nM | CCCCCCC(=O)N[C@@H](Cc1ccccc1)C(=O)N[C@H]1/C=C/CCNC(=O)/C=C/[C@H](C(C)C)NC1=O | 33.4 nM | 18.9 nM | 60.7 nM
14 nM | 6.6 nM | 20.2 nM | CCCCCCCC(=O)N[C@@H](Cc1ccccc1)C(=O)N[C@H]1/C=C/CCNC(=O)/C=C/[C@H](C(C)C)NC1=O | 14.8 nM | 9.9 nM | 19 nM
7.1 nM | 1.8 nM | 18.2 nM | CCCCCCCCC(=O)N[C@@H](Cc1ccccc1)C(=O)N[C@H]1/C=C/CCNC(=O)/C=C/[C@H](C(C)C)NC1=O | 8.6 nM | 8.2 nM | 10.4 nM
36 nM | 7.4 nM | 38.2 nM | CCCCCCCCCCC(=O)N[C@@H](Cc1ccccc1)C(=O)N[C@H]1/C=C/CCNC(=O)/C=C/[C@H](C(C)C)NC1=O | 19.2 nM | 14.4 nM | 19.3 nM
37.4 nM | 14.8 nM | 44.8 nM | CCCCCCCCCCCC(=O)N[C@@H](Cc1ccccc1)C(=O)N[C@H]1/C=C/CCNC(=O)/C=C/[C@H](C(C)C)NC1=O | 33.6 nM | 29.6 nM | 27.5 nM
73.9 nM | 36.9 nM | 82.2 nM | CCCCCCCCCCCCC(=O)N[C@@H](Cc1ccccc1)C(=O)N[C@H]1/C=C/CCNC(=O)/C=C/[C@H](C(C)C)NC1=O | 49.8 nM | 88.3 nM | 48.3 nM
413 nM | 409 nM | 430 nM | CCCCCCCCCCCCCC(=O)N[C@@H](Cc1ccccc1)C(=O)N[C@H]1/C=C/CCNC(=O)/C=C/[C@H](C(C)C)NC1=O | 470 nM | 735 nM | 425 nM
45.1 nM | 11 nM | 27.8 nM | CCCCCCCCCC(=O)N[C@H](C(=O)N[C@H]1/C=C/CCNC(=O)/C=C/[C@H](C(C)C)NC1=O)c1ccccc1 | 20.8 nM | 26.9 nM | 9.5 nM
28.4 nM | 11.6 nM | 16.8 nM | CCCCCCCCCC(=O)N[C@@H](CCc1ccccc1)C(=O)N[C@H]1/C=C/CCNC(=O)/C=C/[C@H](C(C)C)NC1=O | 27 nM | 14.9 nM | 9.6 nM
40.6 nM | 9.4 nM | 31.7 nM | CCCCCCCCCC(=O)N[C@@H](CCCc1ccccc1)C(=O)N[C@H]1/C=C/CCNC(=O)/C=C/[C@H](C(C)C)NC1=O | 39.8 nM | 23.5 nM | 8.5 nM

IC50 (HCT-116) | IC50 (CCRF-CEM) | IC50 (A-431) | SMILES | IC50 (RKO) | IC50 [1] | IC50 [2]
38.6 nM | 21.4 nM | 52.8 nM | CCCCCCCCCC(=O)N[C@@H](CC1CCCCC1)C(=O)N[C@H]1/C=C/CCNC(=O)/C=C/[C@H](C(C)C)NC1=O | 35.1 nM | 21 nM | 48.9 nM
7.1 nM | 3.3 nM | 14.9 nM | CCCCCCCCCC(=O)N[C@@H](Cc1ccccc1F)C(=O)N[C@H]1/C=C/CCNC(=O)/C=C/[C@H](C(C)C)NC1=O | 6.8 nM | 5.6 nM | 8.2 nM
15 nM | 5.5 nM | 27.7 nM | CCCCCCCCCC(=O)N[C@@H](Cc1cccc(F)c1)C(=O)N[C@H]1/C=C/CCNC(=O)/C=C/[C@H](C(C)C)NC1=O | 11.8 nM | 8.8 nM | 21.1 nM
23.1 nM | 4.9 nM | 33.2 nM | CCCCCCCCCC(=O)N[C@@H](Cc1ccc(F)cc1)C(=O)N[C@H]1/C=C/CCNC(=O)/C=C/[C@H](C(C)C)NC1=O | 14.8 nM | 8.6 nM | 19 nM
8.7 nM | 8.2 nM | 9.9 nM | CCCCCCCCCC(=O)N[C@@H](Cc1ccccc1Cl)C(=O)N[C@H]1/C=C/CCNC(=O)/C=C/[C@H](C(C)C)NC1=O | 7.4 nM | 8.8 nM | 7.1 nM
15.6 nM | 5.2 nM | 18.4 nM | CCCCCCCCCC(=O)N[C@@H](Cc1cccc(Cl)c1)C(=O)N[C@H]1/C=C/CCNC(=O)/C=C/[C@H](C(C)C)NC1=O | 14.9 nM | 9.4 nM | 13.8 nM
21.7 nM | 4.5 nM | 23.3 nM | CCCCCCCCCC(=O)N[C@@H](Cc1ccc(Cl)cc1)C(=O)N[C@H]1/C=C/CCNC(=O)/C=C/[C@H](C(C)C)NC1=O | 19.6 nM | 12 nM | 12.3 nM
13.4 nM | 3.9 nM | 13.4 nM | CCCCCCCCCC(=O)N[C@@H](Cc1ccccc1Br)C(=O)N[C@H]1/C=C/CCNC(=O)/C=C/[C@H](C(C)C)NC1=O | 13 nM | 9.4 nM | 9.6 nM
18 nM | 4.6 nM | 15.5 nM | CCCCCCCCCC(=O)N[C@@H](Cc1cccc(Br)c1)C(=O)N[C@H]1/C=C/CCNC(=O)/C=C/[C@H](C(C)C)NC1=O | 16.3 nM | 9.6 nM | 12.8 nM
33.4 nM | 18.4 nM | 25.6 nM | CCCCCCCCCC(=O)N[C@@H](Cc1ccc(Br)cc1)C(=O)N[C@H]1/C=C/CCNC(=O)/C=C/[C@H](C(C)C)NC1=O | 33.7 nM | 28.3 nM | 24.1 nM
12 nM | 3.6 nM | 8.9 nM | CCCCCCCCCC(=O)N[C@@H](Cc1ccccc1C)C(=O)N[C@H]1/C=C/CCNC(=O)/C=C/[C@H](C(C)C)NC1=O | 9.5 nM | 8.8 nM | 6.2 nM
7 nM | 3.5 nM | 6.9 nM | CCCCCCCCCC(=O)N[C@@H](Cc1cccc(C)c1)C(=O)N[C@H]1/C=C/CCNC(=O)/C=C/[C@H](C(C)C)NC1=O | 7.3 nM | 8.4 nM | 6.2 nM
28.1 nM | 1.9 nM | 18.9 nM | CCCCCCCCCC(=O)N[C@@H](Cc1ccc(C)cc1)C(=O)N[C@H]1/C=C/CCNC(=O)/C=C/[C@H](C(C)C)NC1=O | 15.5 nM | 4.8 nM | 9.1 nM
68.5 nM | 32.3 nM | 134 nM | CCCCCCCCCC(=O)N[C@@H](Cc1ccc(O)cc1)C(=O)N[C@H]1/C=C/CCNC(=O)/C=C/[C@H](C(C)C)NC1=O | 43.7 nM | 28.3 nM | 151 nM
19.2 nM | 8.6 nM | 23.5 nM | CCCCCCCCCC(=O)N[C@@H](Cc1ccccn1)C(=O)N[C@H]1/C=C/CCNC(=O)/C=C/[C@H](C(C)C)NC1=O | 18.2 nM | 15 nM | 10.7 nM
29.4 nM | 27.5 nM | 24.4 nM | CCCCCCCCCC(=O)N[C@@H](Cc1cccnc1)C(=O)N[C@H]1/C=C/CCNC(=O)/C=C/[C@H](C(C)C)NC1=O | 17.1 nM | 15.5 nM | 5.1 nM
56.3 nM | 35.7 nM | 50.3 nM | CCCCCCCCCC(=O)N[C@@H](Cc1ccncc1)C(=O)N[C@H]1/C=C/CCNC(=O)/C=C/[C@H](C(C)C)NC1=O | 47.3 nM | 72.6 nM | 14.5 nM
27.1 nM | 12.3 nM | 21.9 nM | CCCCCCCCCC(=O)N[C@@H](Cc1ccc(-c2ccccc2)cc1)C(=O)N[C@H]1/C=C/CCNC(=O)/C=C/[C@H](C(C)C)NC1=O | 30.4 nM | 19.7 nM | 16.8 nM
